What was measured:
[1] = Rancimat oxidative stability test of peanut oil; details: Rancimat 100° C., 20 cc/min air, control 10.5 ± 0.7
Experimental: The procedures described in Examples 1, 2 and 3 were used to prepare cocoa extracts which were manipulated further to produce two fractions from gel permeation chromatography. These two fractions are actually combined fractions A through C, and D and E (See FIG. 1) whose antioxidant properties were compared against the synthetic antioxidants BHA and BHT.
Peanut Oil was pressed from unroasted peanuts after the skins were removed. 50 μL of methanol solubilized antioxidant was added to each sample to aid in dispersion of the antioxidant. A control sample was prepared with 50 μL of methanol containing no antioxidant.
The samples were evaluated in duplicate, for oxidative stability using the Rancimat stability test at 100° C. and 20 cc/min of air. Experimental parameters were chosen to match those used with the Active oxygen Method (AOM) or Swift Stability Test (Van oosten et al., 1981). Results are reported in Table 8 as hours required to reach a peroxide level of 100 meq.

Helicobacter pylori = assay: Disk diffusion bioassay, H. pylori; assay type: cell-based; details: control disk containing 80 ug metronidazole
Experimental: (§1) A study was conducted to evaluate the antimicrobial activity of procyanidin oligomers against Helicobacter pylori and Staphylococcus aureus. Pentamer enriched material was prepared as described in Example 13, Method A and analyzed as described in Example 14, Method C, where 89% was pentamer, and 11% was higher oligomers (n is 6 to 12). Purified pentamer (96.3%) was prepared as described in Example 14, Method D.
(§2) Helicobacter pylori and Staphylococcus aureus were obtained from the American Type Culture Collection (ATCC). For H. pylori, the vial was rehydrated with 0.5 mL Trypticase Soy broth and the suspension transferred to a slant of fresh TSA containing 5% defibrinated sheep blood. The slant was incubated at 37° C. for 3 to 5 days under microaerophilic conditions in anaerobic jars (5 to 10% carbon dioxide; CampyPakPlus, BBL). When good growth was established in the pool of broth at the bottom of the slant, the broth was used to inoculate additional slants of TSA with sheep blood. Because viability decreased with continued subculturing, the broth harvested from the slants was pooled and stored at −80° C. Cultures for assay were used directly from the frozen vials. […]
(§3) A cell suspension of each culture was prepared (H. pylori, 10^8 to 10^9 cfu/mL; S. aureus 10^6 to 10^7 cfu/mL) and 0.5 mL spread onto TSA plates with 5% sheep blood. […] Zones of inhibition were measured following outgrowth.

Staphylococcus aureus = assay: Disk diffusion bioassay, S. aureus; assay type: cell-based; details: control disk containing 30 ug vancomycin
Experimental: as §1, §2, §3

## Cc1cc(C(C)(C)C)c(O)c(C(C)(C)C)c1 [BHT, Butylated Hydroxytoluene]
[1]; 20 ppm
  Oxidative Stability of Peanut Oil, hours required to reach a peroxide level of 100 meq, average: 16.5 ± 2.1 h
[1]; 100 ppm
  Oxidative Stability of Peanut Oil, hours required to reach a peroxide level of 100 meq, average: 12.5 ± 2.1 h

## Cc1ncc([N+](=O)[O-])n1CCO [Metronidazole, metronidazole]
Helicobacter pylori
  H. pylori Inhibition: 11 mm

## CN[C@H](CC(C)C)C(=O)N[C@H]1C(=O)N[C@@H](CC(N)=O)C(=O)N[C@H]2C(=O)N[C@H]3C(=O)N[C@H](C(=O)N[C@H](C(=O)O)c4cc(O)cc(O)c4-c4cc3ccc4O)[C@H](O)c3ccc(c(Cl)c3)Oc3cc2cc(c3O[C@@H]2O[C@H](CO)[C@@H](O)[C@H](O)[C@H]2O[C@H]2C[C@](C)(N)[C@H](O)[C@H](C)O2)Oc2ccc(cc2Cl)[C@H]1O [Vancomycin, vancomycin]
Staphylococcus aureus
  S. aureus Inhibition: 15 mm

— US8377424B2, “Treatment of periodontal disease” (Mars, Incorporated, priority 1996, dated 2013)
